Test results from US5990118A, “Purine compounds and xanthine oxidase inhibitors” (Yamasa Corporation, priority 1995, dated 1999).

Target: T1, bovine-milk-derived xanthine oxidase (XOD) (Bos taurus, UniProt P80457)
T1 construct: from tissue; host or cells: bovine milk
Assay: Xanthine oxidase inhibitory activity (inhibition of uricogenesis from xanthine, absorbance at 292 nm)
Type: biochemical
Details: xanthine 100 μM, XOD 10 mU/ml, 50 mM phosphate buffer pH 7.4, 15 minutes, room temperature
Description: Test Example: Xanthine oxidase inhibitory activity
Xanthine (100 μM), bovine-milk-derived xanthine oxidase (XOD) (10 mU/ml), and a test compound were mixed in 50 mM phosphate buffer (pH 7.4), and the mixture was incubated for 15 minutes at room temperature. Transformation of xanthine into uric acid was measured as the change in absorbance (O.D.) at 292 nm, to thereby investigate the inhibitory effect of the test compound against uricogenesis.
The inhibition ratio against uricogenesis was calculated from the following equation, and a dose-response curve of each compound was obtained.
Inhibition ratio against uricogenesis (%)=100-[(D-DB)/T]×100
T: O.D. of a solution of "xanthine+XOD"
D: O.D. of a solution of "test compound+xanthine+XOD"
DB: O.D. of a solution of "test compound+XOD"

T1 sequence (P80457 whole entry): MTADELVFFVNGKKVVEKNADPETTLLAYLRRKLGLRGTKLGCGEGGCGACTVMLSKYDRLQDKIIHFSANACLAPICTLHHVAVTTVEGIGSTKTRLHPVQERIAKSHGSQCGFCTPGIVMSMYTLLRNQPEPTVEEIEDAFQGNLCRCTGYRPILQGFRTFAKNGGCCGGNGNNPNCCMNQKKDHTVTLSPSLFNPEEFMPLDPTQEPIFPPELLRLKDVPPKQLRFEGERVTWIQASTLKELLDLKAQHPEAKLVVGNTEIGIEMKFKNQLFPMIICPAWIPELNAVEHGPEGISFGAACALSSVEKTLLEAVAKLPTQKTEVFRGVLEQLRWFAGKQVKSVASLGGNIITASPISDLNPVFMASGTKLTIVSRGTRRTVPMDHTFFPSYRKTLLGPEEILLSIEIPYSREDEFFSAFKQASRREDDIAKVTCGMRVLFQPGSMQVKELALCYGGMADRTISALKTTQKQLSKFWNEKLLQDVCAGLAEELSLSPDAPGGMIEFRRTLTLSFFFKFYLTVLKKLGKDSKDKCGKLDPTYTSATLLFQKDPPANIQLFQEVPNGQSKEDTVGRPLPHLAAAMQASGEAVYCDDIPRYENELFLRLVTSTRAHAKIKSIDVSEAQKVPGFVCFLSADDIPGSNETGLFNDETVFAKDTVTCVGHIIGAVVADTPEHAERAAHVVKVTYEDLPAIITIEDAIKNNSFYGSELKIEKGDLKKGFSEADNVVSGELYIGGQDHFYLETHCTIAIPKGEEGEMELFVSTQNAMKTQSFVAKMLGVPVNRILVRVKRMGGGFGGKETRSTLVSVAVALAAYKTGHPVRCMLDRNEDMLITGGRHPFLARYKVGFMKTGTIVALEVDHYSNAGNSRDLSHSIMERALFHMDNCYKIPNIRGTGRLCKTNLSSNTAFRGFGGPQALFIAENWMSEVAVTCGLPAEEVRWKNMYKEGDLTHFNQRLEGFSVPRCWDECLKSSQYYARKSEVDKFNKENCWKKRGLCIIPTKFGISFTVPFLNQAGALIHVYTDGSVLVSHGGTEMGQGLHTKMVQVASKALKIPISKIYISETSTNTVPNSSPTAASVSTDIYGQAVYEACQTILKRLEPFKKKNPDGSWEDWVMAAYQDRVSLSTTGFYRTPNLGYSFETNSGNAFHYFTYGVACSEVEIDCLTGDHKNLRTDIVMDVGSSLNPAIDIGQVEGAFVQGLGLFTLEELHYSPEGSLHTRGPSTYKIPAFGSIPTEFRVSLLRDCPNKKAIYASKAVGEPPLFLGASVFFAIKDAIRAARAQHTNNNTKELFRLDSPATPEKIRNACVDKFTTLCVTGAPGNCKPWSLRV

Row | SMILES | IC50
1 | Clc1nc(NN=Cc2ccccc2)c2nc[nH]c2n1 [Compound 3b, 6-benzylidenehydrazino-2-chloro-9H-purine] | 2710 nM
2 | CN(C)c1ccc(C=NNc2nc(Cl)nc3[nH]cnc23)cc1 [Compound 3f, 2-chloro-6-p-N,N-dimethylaminobenzylidenehydrazino-9H-purine] | 2320 nM
3 | Clc1nc(NN=Cc2ccc3c(c2)OCO3)c2nc[nH]c2n1 [Compound 3g, 2-chloro-6-(3,4-methylenedioxybenzylidenehydrazino)-9H-purine] | 1150 nM
4 | Cc1nnc2c3nc[nH]c3[nH]c(=S)n12 [Compound 5b, 3-methyl-7H-[1,2,4]triazolo[3,4-i]purine-5(6H)-thione] | 7910 nM
5 | COc1ccc(-c2nnc3c4nc[nH]c4[nH]c(=S)n23)cc1 [Compound 5d, 3-p-methoxyphenyl-7H-[1,2,4]triazolo[3,4-i]purine-5(6H)-thione] | 3020 nM
6 | O=c1[nH]c2[nH]cnc2c2nnc(-c3ccccc3)n12 [Compound 11c, 3-phenyl-7H-[1,2,4]triazolo[3,4-i]purine-5(6H)-one] | 2570 nM
7 | Fc1ccc(C=NNc2nc(=S)[nH]c3[nH]cnc23)cc1 [Compound 17a, 6-p-fluorobenzylidenehydrazino-9H-purine-2(3H)-thione] | 336 nM
8 | COc1ccc(C=NNc2nc(=S)[nH]c3[nH]cnc23)cc1 [Compound 17d, 6-p-methoxybenzylidenehydrazino-9H-purine-2(3H)-thione] | 969 nM
9 | S=c1nc(NN=Cc2ccc3c(c2)OCO3)c2nc[nH]c2[nH]1 [Compound 17e, 6-(3,4-methylenedioxybenzylidenehydrazino)-9H-purine-2(3H)-thione] | 235 nM
10 | COc1ccc(C=NN(C)c2nc(=S)[nH]c3[nH]cnc23)cc1 [Compound 19a, 6-[2-(4-methoxybenzylidene)-1-methylhydrazino]-9H-purine-2(3H)-thione] | 681 nM
11 | CN(N=Cc1ccc(F)cc1)c1nc(=S)[nH]c2[nH]cnc12 [Compound 19b, 6-[2-(4-fluorobenzylidene)-1-methylhydrazino]-9H-purine-2(3H)-thione] | 667 nM

More lines, in order of falling IC50, values ahead:

Row | IC50 | SMILES
12 | 2950 nM | S=c1[nH]c2[nH]cnc2c2nnc(-c3ccccc3)n12 [Compound 5c, 3-phenyl-7H-[1,2,4]triazolo[3,4-i]purine-5(6H)-thione]
13 | 1960 nM | Fc1ccc(C=NNc2nc(Cl)nc3[nH]cnc23)cc1 [Compound 3c, 2-chloro-6-p-fluorobenzylidenehydrazino-9H-purine]
14 | 1180 nM | O=[N+]([O-])c1ccc(C=NNc2nc(=S)[nH]c3[nH]cnc23)cc1 [Compound 17c, 6-p-nitrobenzylidenehydrazino-9H-purine-2(3H)-thione]
15 | 927 nM | Clc1ccc(C=NNc2nc(Cl)nc3[nH]cnc23)cc1 [Compound 3d, 2-chloro-6-p-chlorobenzylidenehydrazino-9H-purine]
16 | 865 nM | CN(C)c1ccc(C=NNc2nc(=S)[nH]c3[nH]cnc23)cc1 [Compound 17b, 6-p-N,N-dimethylaminobenzylidenehydrazino-9H-purine-2(3H)-thione]
17 | 801 nM | COc1ccc(C=NNc2nc(Cl)nc3[nH]cnc23)cc1 [Compound 3e, 2-chloro-6-p-methoxybenzylidenehydrazino-9H-purine]
18 | 764 nM | Oc1ccc(C=NNc2nc(Cl)nc3[nH]cnc23)cc1 [Compound 3i, 2-chloro-6-p-hydroxybenzylidenehydrazino-9H-purine]
19 | 156 nM | O=c1[nH]c2[nH]cnc2c2nnc(-c3ccc(Cl)cc3)n12 [Compound 11e, 3-p-chlorophenyl-7H-[1,2,4]triazolo[3,4-i]purine-5(6H)-one]
